The target of experiment [1] is human CDK4 and genetically truncated (1-264) cyclin D3 (Homo sapiens, UniProt P11802). In words: Inhibition of CDK4/Cyclin D Retinoblastoma Kinase Activity. The class given is biochemical. The settings on record: apparent Ki, CDK4/truncated cyclin D3, Rb fragment substrate, 25 μM ATP. Summed up:
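Apparent Ki values derive from fitting activity at varied inhibitor concentrations to a competitive (or competitive tight-binding) model. Kinase reactions used 5 nM CDK4/cyclin D3(1-264), Rb fragment substrate and 25 μM ATP. Incubation ran 20 min at 30 °C, extended to 60 min under linear conditions for tight binders.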

The next experiment relates to HCT-116 cell line. In words: Inhibition of cell growth, tetrazolium salt (MTT) assay. The format is cell-based. The settings on record: Homo sapiens, HCT-116, 120 h, MTT, three to five days, read-out: HCT-116 IC50. Summed up: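 First, cells were seeded in McCoy's 5A medium and held 4 h. Next, inhibitor concentrations in 0.5% (v/v) DMSO were applied for three to five days at 37° C, 5% CO2. Finally, after 4 h with 0.2 mg/mL MTT and medium removal, solubilized formazan was measured at 540 nm.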

Another experiment deals with CDK2/Cyclin A (Homo sapiens, UniProt P24941). Briefly: Inhibition of CDK2/Cyclin A Retinoblastoma Kinase Activity. The class given is biochemical. The settings on record: apparent Ki, CDK2/proteolyzed cyclin A, Rb fragment substrate, 25 μM ATP. Summed up:
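Percent inhibition is calculated against DMSO-only wells after subtracting no-enzyme background. The enzyme is human CDK2 complexed with proteolyzed cyclin A, used at 10 nM or 19 nM on an Rb fragment with 25 μM [32/33P]ATP, at pH 7.4 and 30° C.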

Where a name gives a salt, the structure may show the parent alone. Read-outs that look alike come from different tables or passages of the source. Where only a bound is given, the exact number is not on record here.

Chain of human CDK4 and genetically truncated (1-264) cyclin D3 (P11802 whole entry, the tested form may be a part): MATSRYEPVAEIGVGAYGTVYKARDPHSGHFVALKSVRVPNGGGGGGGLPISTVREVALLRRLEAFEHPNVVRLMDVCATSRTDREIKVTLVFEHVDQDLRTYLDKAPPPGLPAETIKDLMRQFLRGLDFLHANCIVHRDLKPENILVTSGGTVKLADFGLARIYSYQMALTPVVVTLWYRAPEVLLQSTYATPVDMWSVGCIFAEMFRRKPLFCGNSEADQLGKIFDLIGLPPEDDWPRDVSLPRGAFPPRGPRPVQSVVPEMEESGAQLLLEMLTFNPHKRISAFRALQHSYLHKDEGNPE
Chain of human CDK4 and genetically truncated (1-264) cyclin D3 (P30281 1-264 partner): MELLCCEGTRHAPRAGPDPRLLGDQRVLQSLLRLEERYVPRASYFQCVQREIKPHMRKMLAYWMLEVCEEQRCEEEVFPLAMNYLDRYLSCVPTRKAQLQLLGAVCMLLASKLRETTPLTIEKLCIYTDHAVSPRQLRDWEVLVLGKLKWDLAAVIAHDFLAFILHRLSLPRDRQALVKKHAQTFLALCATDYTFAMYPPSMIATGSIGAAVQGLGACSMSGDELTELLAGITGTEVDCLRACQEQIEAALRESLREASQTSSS

As to `CN(C)CC(=O)N1CCC(Nc2nc(N)c(C(=O)c3c(F)cccc3F)s2)CC1` [Example D2, (4-[4-Amino-5-(2,6-difluoro-benzoyl)-thiazol-2-ylamino}-piperidin-1-yl)-2-dimethylamino-ethanone], the Ki amounted to 0.12 µM in experiment [1] and 1.3 µM at CDK2/Cyclin A. The IC50 in the experiment on HCT-116 cell line (first HCT-116 column (c4)) stood at 1.9 µM; in the experiment on HCT-116 cell line (second HCT-116 column (c5)), 5 µM.

As to `Nc1nc(NC2CCN(C(=O)CCN3CCCCC3)CC2)sc1C(=O)c1c(F)cccc1F` [Example D3, 1-(4-[4-Amino-5-(2,6-difluoro-benzoyl)-thiazol-2-ylamino}-piperidin-1-yl)-3-piperidin-1-yl-propan-1-one], the results for the Ki (in experiment [1]; at CDK2/Cyclin A) were 0.071 µM and 0.4 µM, respectively. For the same compound, in the experiment on HCT-116 cell line (first HCT-116 column (c4)), the IC50 was > 5 µM.

`CN(C)[C@@H](Cc1ccccc1)C(=O)N1CCC(Nc2nc(N)c(C(=O)c3c(F)cccc3F)s2)CC1` [Example D4, (4-[4-Amino-5-(2,6-difluoro-benzoyl)-thiazol-2-ylamino}-piperidin-1-yl)-2S-dimethylamino-phenyl-propan-1-one]: the Ki in experiment [1] is 0.46 µM; on CDK2/Cyclin A it was 2.6 µM. Moreover, in the experiment with HCT-116 cell line (first HCT-116 column (c4)), the IC50 is > 5 µM.

With `Nc1nc(NC2CCN(C(=O)[C@@H]3CCC(=O)O3)CC2)sc1C(=O)c1c(F)cccc1F` [Example D5, 5S-[1{-4-[4-Amino-5-(2,6-difluoro-benzoyl)-thiazol-2-ylamethano]-piperidin-1-yl}-methanoyl]-tetrahydro-furan-2-one], the Ki in experiment [1] was 0.0068 µM; on CDK2/Cyclin A, 0.0064 µM. Also, the IC50 in the experiment on HCT-116 cell line (first HCT-116 column (c4)) and in the experiment on HCT-116 cell line (second HCT-116 column (c5)) was > 5 µM in each case.

Regarding `Nc1nc(NC2CCN(C(=O)/C=C/c3ccncc3)CC2)sc1C(=O)c1c(F)cccc1F` [Example D6, 1-{[4-Amino-5-(2,6-difluoro-benzoyl)-thiazol-2-ylamino]-piperidin-1-yl)3-pyridin-4-yl-prop-2(E)-enone], the Ki was 0.067 µM in experiment [1] and 0.16 µM on CDK2/Cyclin A. The IC50 stood at 1.9 µM in the experiment on HCT-116 cell line (first HCT-116 column (c4)) and 3.9 µM in the experiment with HCT-116 cell line (second HCT-116 column (c5)).

Regarding `Cc1cc(C(=O)N2CCC(Nc3nc(N)c(C(=O)c4c(F)cccc4F)s3)CC2)ccc1Cl` [Example D7, 1-(4-Amino-2-{1-[1-(4-chloro-3-methyl-phenyl)-methanoyl]-piperidin-4-ylamino}-thiazol-5-yl)-1-(2,6-difluoro-phenyl)-methanone], the Ki worked out at 0.032 µM in experiment [1] and 0.1 µM at CDK2/Cyclin A. Further, the IC50 in the experiment with HCT-116 cell line (first HCT-116 column (c4)) was determined as 0.0072 µM; in the experiment on HCT-116 cell line (second HCT-116 column (c5)) it was 0.22 µM.

Regarding `Nc1nc(NC2CCN(C(=O)c3ccc(F)c(Cl)c3)CC2)sc1C(=O)c1c(F)cccc1F` [Example D8, 1-(4-Amino-2-{1-[1-(3-chloro-4-fluoro-phenyl)-methanoyl]-piperidin-4-ylamino}-thiazol-5-yl)-1-(2,6-difluoro-phenyl)-methanone], the Ki in experiment [1] was determined as 0.0096 µM; at CDK2/Cyclin A, 0.099 µM. Also, the IC50 in the experiment on HCT-116 cell line (first HCT-116 column (c4)) worked out at 0.097 µM; in the experiment with HCT-116 cell line (second HCT-116 column (c5)), 0.25 µM.

On to `Cc1cc(C)cc(CC(=O)N2CCC(Nc3nc(N)c(C(=O)c4c(F)cccc4F)s3)CC2)c1` [Example D10, 1-{4-[4-Amino-5-(2,6-difluoro-benzoyl)-thiazol-2-ylamino]piperidin-1-yl}-2-(3,5-dimethyl-phenyl)-ethanone], for which the Ki in experiment [1] came to 0.062 µM; at CDK2/Cyclin A, 0.085 µM. For the same compound, the IC50 amounted to 0.06 µM with HCT-116 cell line (first HCT-116 column (c4)) and 0.2 µM with HCT-116 cell line (second HCT-116 column (c5)).

As to `Nc1nc(NC2CCN(C(=O)c3ccc(Br)cc3)CC2)sc1C(=O)c1c(F)cccc1F` [Example D11], the Ki turned out to be 0.031 µM in experiment [1] and 0.081 µM at CDK2/Cyclin A. The IC50 in the experiment on HCT-116 cell line (first HCT-116 column (c4)) was found to be 0.72 µM; with HCT-116 cell line (second HCT-116 column (c5)), 1.8 µM.

`COc1cc(C(=O)N2CCC(Nc3nc(N)c(C(=O)c4c(F)cccc4F)s3)CC2)ccc1C` [Example D12, 1-[4-Amino-2-{1-[-(3-methoxy-4-methyl-phenyl)-methanoyl]-piperidin-4-ylamino}-thiazol-5-yl)-1-(2,6-difluoro-phenyl)-methanone Trifluoroacetic Acid Salt]: the Ki in experiment [1] was 0.014 µM; at CDK2/Cyclin A it was 0.029 µM. Also, the IC50 came out at 0.12 µM in the experiment with HCT-116 cell line (first HCT-116 column (c4)) and 0.32 µM in the experiment with HCT-116 cell line (second HCT-116 column (c5)).

In the case of `N#C/C(=C\c1cccc(O)c1)C(=O)N1CCC(Nc2nc(N)c(C(=O)c3c(F)cccc3F)s2)CC1` [Example D13, 12(Z)-(1-{4-[4-Amino-5-(2,6-difluoro-benzoyl)-thiazol-2-ylamino]-piperidin-1-yl}-methanoyl)-3-(3-hydroxy-phenyl)-acrylonitrile Trifluoroacetic Acid Salt], the Ki stood at 0.0018 µM in experiment [1] and 0.024 µM on CDK2/Cyclin A. Also, the IC50 is 1.3 µM in the experiment on HCT-116 cell line (first HCT-116 column (c4)) and 5 µM with HCT-116 cell line (second HCT-116 column (c5)).

Take `Cc1cc(C)cc(C(=O)N2CCC(Nc3nc(N)c(C(=O)c4c(F)cccc4F)s3)CC2)c1` [Example D14, {4-Amino-2-[1-(3,5-dimethyl-benzoyl)-piperidin-4-ylamino]-thiazol-5-yl}-(2,6-difluoro-phenyl)-methanone]: the Ki is 0.019 µM in experiment [1] and 0.12 µM on CDK2/Cyclin A. Further, the IC50 was found to be 0.014 µM with HCT-116 cell line (first HCT-116 column (c4)) and 0.041 µM in the experiment on HCT-116 cell line (second HCT-116 column (c5)).

As for `Cc1ccc(C(=O)N2CCC(Nc3nc(N)c(C(=O)c4c(F)cccc4F)s3)CC2)cc1C` [Example D15, {4-Amino-2-[1-(3,4-dimethyl-benzoyl)-piperidin-4-ylamino]-thiazol-5-yl}-(2,6-difluoro-phenyl)-methanone], the Ki was determined as 0.027 µM in experiment [1] and 0.17 µM at CDK2/Cyclin A. Also, the IC50 was found to be 0.05 µM in the experiment with HCT-116 cell line (first HCT-116 column (c4)) and 0.17 µM in the experiment on HCT-116 cell line (second HCT-116 column (c5)).

As for `COc1cc(C(=O)N2CCC(Nc3nc(N)c(C(=O)c4c(F)cccc4F)s3)CC2)cc(OC)c1C` [Example D17, {4-Amino-2-[1-(3,5-dimethoxy-4-methyl-benzoyl)-piperidin-4-ylamino]-thiazol-5-yl-}(2,6-difluoro-phenyl)-methanone], the Ki in experiment [1] worked out at 0.018 µM; on CDK2/Cyclin A, 0.069 µM. The values for the IC50 in the experiment with HCT-116 cell line (first HCT-116 column (c4)) and in the experiment on HCT-116 cell line (second HCT-116 column (c5)) were 0.057 µM and 0.16 µM, respectively.

With `Nc1nc(NC2CCN(S(=O)(=O)Nc3ccccc3)CC2)sc1C(=O)c1c(F)cccc1F` [Example E2, 4-[4-Amino-5-(2,6-difluoro-benzoyl)-thiazol-2-ylamino]-piperidine-1-sulfonic acid phenylamide], the values for the Ki (in experiment [1]; on CDK2/Cyclin A) were 0.0039 µM and 0.0012 µM, respectively. The half-maximal inhibitory concentration (IC50) in the experiment on HCT-116 cell line (first HCT-116 column (c4)) amounted to 0.68 µM; in the experiment with HCT-116 cell line (second HCT-116 column (c5)) it was 1.3 µM.

With `CN1CCN(S(=O)(=O)N2CCC(Nc3nc(N)c(C(=O)c4c(F)cccc4F)s3)CC2)CC1` [Example E3, {4-Amino-2-[1-(4-methyl-piperazine-1-sulfonyl)-piperidin-4-ylamino]-thiazol-5-yl}-(2,6-difluoro-phenyl)-methanone], the Ki in experiment [1] was 0.0054 µM; on CDK2/Cyclin A, 0.012 µM. In addition, the IC50 with HCT-116 cell line (first HCT-116 column (c4)) is 0.33 µM; in the experiment with HCT-116 cell line (second HCT-116 column (c5)), 0.78 µM.

In the case of `Nc1nc(NC2CCN(S(N)(=O)=O)CC2)sc1C(=O)c1c(F)cccc1F` [Example E4, 4-[4-Amino-5-(2,6-difluoro-benzoyl)-thiazol-2-ylamino]-piperidine-1-sulfonic acid amide], the values for the Ki (in experiment [1]; at CDK2/Cyclin A) were 0.014 µM and 0.0027 µM, respectively. The IC50 in the experiment with HCT-116 cell line (first HCT-116 column (c4)) is 0.57 µM; in the experiment on HCT-116 cell line (second HCT-116 column (c5)), 1.2 µM.

With `CC(C)OC(=O)NS(=O)(=O)N1CCC(Nc2nc(N)c(C(=O)c3c(F)cccc3F)s2)CC1` [Example E5, [1-(4-{4-Amino-5-[1-(2,6-difluoro-phenyl)-methanoyl]-thiazol-2-ylamino}-piperidin-1-yl)-sulfonyl]-carbamic Acid Isopropyl Ester], the Ki in experiment [1] came to 0.17 µM; on CDK2/Cyclin A it was 0.038 µM. Besides, the IC50 in the experiment with HCT-116 cell line (first HCT-116 column (c4)) and in the experiment with HCT-116 cell line (second HCT-116 column (c5)) was > 5 µM throughout.

As for `Cc1noc(C)c1S(=O)(=O)N1CCC(Nc2nc(N)c(C(=O)c3c(F)cccc3F)s2)CC1` [Example F1], the figures for the Ki (in experiment [1]; on CDK2/Cyclin A) were 0.014 µM and 0.012 µM, respectively. Further, the IC50 in the experiment on HCT-116 cell line (first HCT-116 column (c4)) turned out to be 1.4 µM; with HCT-116 cell line (second HCT-116 column (c5)), 4.5 µM.

As to `Cn1cnc(S(=O)(=O)N2CCC(Nc3nc(N)c(C(=O)c4c(F)cccc4F)s3)CC2)c1` [Example F2, 1-{4-Amino-2-[1-(i-methyl-1H-imidazole-4-sulfonyl)-piperidin-4-ylamino]-thiazol-5-yl}-1-(2,6-difluoro-phenyl)-methanone], the Ki is 0.0019 µM in experiment [1] and < 0.005 µM on CDK2/Cyclin A. Moreover, the values for the IC50 in the experiment on HCT-116 cell line (first HCT-116 column (c4)) and in the experiment with HCT-116 cell line (second HCT-116 column (c5)) were 1.3 µM and 4 µM, respectively.

For the compound `CS(=O)(=O)N1CCC(Nc2nc(N)c(C(=O)c3c(F)cccc3F)s2)CC1` [Example F3, 1-[4-Amino-2-(1-methanesulfonyl-piperidin-4-ylamino)-thiazol-5-yl]-1-(2,6-difluoro-phenyl)-methanone], the Ki stood at 0.0059 µM in experiment [1] and 0.0029 µM at CDK2/Cyclin A. The IC50 came to 0.18 µM with HCT-116 cell line (first HCT-116 column (c4)) and 0.48 µM in the experiment on HCT-116 cell line (second HCT-116 column (c5)).

Take `Nc1nc(NC2CCN(S(=O)(=O)Cc3ccccc3)CC2)sc1C(=O)c1c(F)cccc1F` [Example F4, 1-[4-Amino-2-(1-phenylmethanesulfonyl-piperidin-4-ylamino)-thiazol-5-yl]-1-(2,6-difluoro-phenyl)-methanone]: the figures for the Ki (in experiment [1]; on CDK2/Cyclin A) were 0.0028 µM and 0.0041 µM, respectively. For the same compound, the figures for the IC50 with HCT-116 cell line (first HCT-116 column (c4)) and with HCT-116 cell line (second HCT-116 column (c5)) were 0.26 µM and 0.59 µM, respectively.

Values taken from patent US20050101595A1, “N-containing cycloalkyl-substituted amino-thiazole derivatives and pharmaceutical compositions for inhibiting cell proliferation and methods for their use” (PFIZER INC., priority 2003, published 2005).
